Among the data in US7652047B2, “Phenylamino isothiazole carboxamidines as MEK inhibitors” (Ardea Biosciences, Inc., priority 2005, dated 2010) are IC50 values, retold here.

The term IC50 denotes the concentration needed to halve the response being measured.

The target of this experiment is T1, MEK1^CA (human GST-MEK1, constitutively active, Ser218Asp and Ser222Asp) (Homo sapiens, UniProt Q02750, S218D/S222D).
T1 construct: GST; made in house; host or cells: Escherichia coli
T1 sequence (Q02750 whole entry S218D/S222D): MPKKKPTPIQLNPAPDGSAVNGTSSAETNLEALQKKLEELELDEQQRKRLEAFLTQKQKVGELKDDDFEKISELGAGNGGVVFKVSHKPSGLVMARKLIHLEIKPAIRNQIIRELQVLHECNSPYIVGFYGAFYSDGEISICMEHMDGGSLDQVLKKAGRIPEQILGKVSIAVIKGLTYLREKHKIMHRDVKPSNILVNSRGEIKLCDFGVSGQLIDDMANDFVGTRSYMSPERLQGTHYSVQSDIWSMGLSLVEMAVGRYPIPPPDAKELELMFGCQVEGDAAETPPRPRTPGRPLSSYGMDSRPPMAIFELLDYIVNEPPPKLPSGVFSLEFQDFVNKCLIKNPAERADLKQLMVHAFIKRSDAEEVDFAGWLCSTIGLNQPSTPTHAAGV
In words: MEK1 enzymatic activity assay (MEK1^CA / ERK2 / MBP, [γ-33P]ATP incorporation). The experiment is classed as biochemical. To be noted: Table 1, compounds of formula I; read-out: Avg IC50. An excerpt: Materials and preparation of reagents: Human GST-MEK1 and the constitutively active allele GST-MEK1^CA (harboring the mutations Ser218Asp and Ser222Asp) were subcloned into the […] expression vector pGEM4Z (Promega, Madison, Wis.) from the wild type human MEK1 cDNA. GST-MEK1^CA was expressed in Escherichia coli and partially purified using Glutathione Sepharose 4B affinity resin (Amersham Pharmacia Biotech, Piscataway, N.J.). The ERK2 allele was subcloned from MAPK2/Erk2 cDNA (wild type) in pUSEamp (Upstate Biotechnology, Inc., Waltham, Mass.) into the vector pET21a (Novagen, Madison, Wis.) resulting in an N-terminal histidine-tagged mouse ERK2 allele. […] Myelin basic protein (MBP) was purchased from Gibco BRL (Rockville, Md.). EasyTides adenosine 5′-triphosphate (ATP) ([γ-^33P]) (NEN Perkin Elmer, Wellesley, Mass.) was the source of radiolabel for all kinase reactions. Activated Raf-1 (truncated) and activated MAPKinase 2/ERK2 were purchased from Upstate, Inc. (Lake Placid, N.Y.). 4-20% Criterion Precast gels were purchased from Bio-Rad (Hercules, Calif.).
A typical 25-microliter assay contained 0.002 nanomoles MEK1^CA, 0.02 nanomoles ERK2, 0.25 nanomoles MBP, 0.25 nanomoles unlabeled ATP, and 0.1 μCi [γ^33P] ATP. The screening assay essentially comprised four additions. Five μl of diluted compound were dispensed to 96-well assay plates. Ten μl of 2.5× enzyme cocktail (MEK1^CA and ERK2 only) were then added to each well followed by a pre-incubation for 30 minutes at ambient temperature. […] Finally, 100 μl of 10% trichloroacetic acid (TCA) were added and incubated for 30 minutes at room temperature to halt the reaction and precipitate radiolabeled protein products. Reaction products were harvested on glass fiber 96 well filter plates prewetted with water and 1% pyrophosphate. The filter plate was then washed 5 times with water. Water was displaced by absolute ethanol and the plate was allowed to air dry for 30 minutes at room temperature. A back seal was applied manually and 40 μl of scintillation cocktail were dispensed to each well. A top seal was applied and the plate was counted in the TopCount for two seconds per well.
On to `N=C(NCC1CCCCC1)c1c(O)nsc1Nc1ccc(N2CCOCC2)nc1` [compound 132], for which the IC50 was > 500 nM.

As for `N=C(NCC1CCCCC1)c1c(O)nsc1Nc1ccc(/C=C/c2ccccc2)cc1` [compound 133], the IC50 was > 500 nM. Then `Cc1ccc(Oc2ccc(Nc3snc(O)c3C(=N)NCC3CCCCC3)cn2)cn1` [compound 134], with > 500 nM; and `Oc1nsc(Nc2ccc(Oc3ccccc3)cc2)c1-c1nnn[nH]1` [compound 136], with > 500 nM; and `N=C(NCC1CCCCC1)c1c(O)nsc1Nc1ccc(Oc2cncnc2)cc1` [compound 137], with > 500 nM. For `N=C(c1c(O)nsc1Nc1ccc(Oc2ccccc2)cc1)N(O)Cc1ccccc1` [compound 138], the IC50 is 100 to 500 nM. `CN(O)C(=N)c1c(O)nsc1Nc1ccc(Oc2ccccc2)cc1` [compound 139]: the IC50 fell in the range of 100 to 500 nM. Regarding `N=C(NCC1CCCCC1)c1c(O)nsc1Nc1ccc(Oc2ccc(Cl)cc2)cc1` [compound 140], the IC50 was 1 to 100 nM.

As to `COc1ccc(Oc2ccc(Nc3snc(O)c3C(=N)NCC3CCCCC3)cc2)cc1` [compound 141], the concentration for half-maximal inhibition (IC50) is 100 to 500 nM. As to `N=C(NCC1CCCCC1)c1c(O)nsc1Nc1ccc(Oc2ccc(F)cc2)cc1` [compound 142], the IC50 lay in the range of 1 to 100 nM. `CC(C)(CO)CNC(=N)c1c(O)nsc1Nc1ccc(Oc2ccccc2)cc1` [compound 143]: the IC50 fell in the range of 1 to 100 nM. As for `CC(C)N(O)C(=N)c1c(O)nsc1Nc1ccc(Oc2ccccc2)cc1` [compound 144], the IC50 is 1 to 100 nM. On to `CC(=O)Nc1ccc(Oc2ccc(Nc3snc(O)c3C(=N)NCC(O)CO)cc2)cc1` (centres unmarked) [compound 145], for which the IC50 was > 500 nM.

`N=C(NCCO)c1c(O)nsc1Nc1ccc(Cc2ccccc2)cc1` [compound 146]: the IC50 was > 500 nM.

`CN(C)CCNC(=N)c1c(O)nsc1Nc1ccc(Oc2ccccc2)cc1` [compound 147]: the IC50 lay within 100 to 500 nM. Turning to `CN1CCCC1CCNC(=N)c1c(O)nsc1Nc1ccc(Oc2ccccc2)cc1` (centres unmarked) [compound 148], the IC50 was > 500 nM.

For `Oc1nsc(Nc2ccc(Oc3ccccc3)cc2)c1-c1noc(-c2ccccc2)n1` [compound 149], the IC50 was > 500 nM. As for `CC(=O)NC(=N)c1c(O)nsc1Nc1ccc(Oc2ccccc2)cc1` [compound 150], the IC50 is > 500 nM. With `Cc1ccc(S(=O)(=O)NC(=N)c2c(O)nsc2Nc2ccc(Oc3ccccc3)cc2)cc1` [compound 151], the IC50 is > 500 nM. For the compound `N=C(N[C@H]1CC[C@H](O)CC1)c1c(O)nsc1Nc1ccc(Oc2ccccc2)cc1` [compound 152], the IC50 lay in the range of 1 to 100 nM. As for `CCC(CO)NC(=N)c1c(O)nsc1Nc1ccc(Oc2ccccc2)cc1` (centres unmarked) [compound 153], the IC50 is 100 to 500 nM. On to `CC(CO)/N=C(\N)c1c(O)nsc1Nc1ccc(Oc2ccccc2)cc1` (centres unmarked) [compound 154], for which the IC50 is 1 to 100 nM. Consider `N=C(N[C@@H]1CCC[C@H]1O)c1c(O)nsc1Nc1ccc(Oc2ccccc2)cc1` [compound 155], for which the IC50 fell in the range of 100 to 500 nM.

Regarding `CC(O)CNC(=N)c1c(O)nsc1Nc1ccc(Oc2ccccc2)cc1` (centres unmarked) [compound 156], the IC50 fell in the range of 100 to 500 nM. As for `CCCCC(CO)NC(=N)c1c(O)nsc1Nc1ccc(Oc2ccccc2)cc1` (centres unmarked) [compound 157], the IC50 lay in the range of 100 to 500 nM. As to `N=C(NCCCCO)c1c(O)nsc1Nc1ccc(Oc2ccc(Cl)cc2)cc1` [compound 158], the IC50 was in the range of 100 to 500 nM. Then `C[C@H](NC(=N)c1c(O)nsc1Nc1ccc(Oc2ccccc2)cc1)[C@@H](O)c1ccccc1` [compound 159], with 1 to 100 nM. With `CCC[C@H]1CC[C@H](c2ccc(Nc3snc(O)c3C(=N)NC(C)C)cc2)CC1` [compound 160], the IC50 is 100 to 500 nM.

As to `CCC[C@H]1CC[C@H](c2ccc(Nc3snc(O)c3C(=N)NCCO)cc2)CC1` [compound 161], the IC50 was > 500 nM.

For `N#CNC(=N)c1c(O)nsc1Nc1ccc(Oc2ccccc2)cc1` [compound 162], the IC50 was > 500 nM. For the compound `CC(C)C[C@H](CO)NC(=N)c1c(O)nsc1Nc1ccc(Oc2ccccc2)cc1` [compound 163], the IC50 is 100 to 500 nM. The result for `N=C(NC(CO)CO)c1c(O)nsc1Nc1ccc(Oc2ccccc2)cc1` [compound 164] reads 1 to 100 nM; that for `CCC[C@H]1CC[C@H](c2ccc(Nc3snc(O)c3C(=N)NCC(C)(C)CO)cc2)CC1` [compound 165], 100 to 500 nM. With `N=C(NCC(O)c1cccc(O)c1)c1c(O)nsc1Nc1ccc(Oc2ccccc2)cc1` (centres unmarked) [compound 166], the concentration for half-maximal inhibition (IC50) lay in the range of 1 to 100 nM. The result for `N=C(N[C@@H]1CCCC[C@H]1O)c1c(O)nsc1Nc1ccc(Oc2ccccc2)cc1` [compound 167] reads 100 to 500 nM; that for `N=C(N[C@H](CO)CC1CCCCC1)c1c(O)nsc1Nc1ccc(Oc2ccccc2)cc1` [compound 168], > 500 nM; that for `CC(C)NC(=N)c1c(O)nsc1Nc1ccc(Oc2cncnc2)cc1` [compound 169], 100 to 500 nM. Then `CC(C)NC(=N)c1c(O)nsc1Nc1ccc(C2CCCCC2)cc1` [compound 170], with 100 to 500 nM; and `N=C(NCCO)c1c(O)nsc1Nc1ccc(Oc2cncnc2)cc1` [compound 171], with > 500 nM; and `N=C(NCCO)c1c(O)nsc1Nc1ccc(C2CCCCC2)cc1` [compound 172], with > 500 nM. For `CC(C)(C)NC(=N)c1c(O)nsc1Nc1ccc(Oc2ccccc2)cc1` [compound 173], the IC50 lay within 1 to 100 nM.

Regarding `C[C@@H](CO)NC(=N)c1c(O)nsc1Nc1ccc(Oc2ccccc2)cc1` [compound 174], the IC50 lay in the range of 1 to 100 nM. Consider `C[C@H](CO)NC(=N)c1c(O)nsc1Nc1ccc(Oc2ccccc2)cc1` [compound 175], for which the IC50 was in the range of 1 to 100 nM.

As to `CC[C@@H](CO)NC(=N)c1c(O)nsc1Nc1ccc(Oc2ccccc2)cc1` [compound 176], the concentration for half-maximal inhibition (IC50) was in the range of 100 to 500 nM. As for `CC[C@H](CO)NC(=N)c1c(O)nsc1Nc1ccc(Oc2ccccc2)cc1` [compound 177], the IC50 lay within 100 to 500 nM. Consider `COCC(C)NC(=N)c1c(O)nsc1Nc1ccc(Oc2ccccc2)cc1` (centres unmarked) [compound 178], for which the IC50 lay within 1 to 100 nM.

Consider `CC(C)C(CO)NC(=N)c1c(O)nsc1Nc1ccc(Oc2ccccc2)cc1` (centres unmarked) [compound 179], for which the IC50 lay within 100 to 500 nM. Regarding `CC(C)(C)C(CO)NC(=N)c1c(O)nsc1Nc1ccc(Oc2ccccc2)cc1` (centres unmarked) [compound 180], the IC50 fell in the range of 100 to 500 nM. The result for `COc1ccc(Nc2snc(O)c2-c2nnn[nH]2)c(OC)n1` [compound 181] reads > 500 nM. Then `N=C(NCc1ccc(C(F)(F)F)nc1)c1c(O)nsc1Nc1cccc(Oc2ccccc2)c1` [compound 182], with 100 to 500 nM; and `CC(C)NC(=N)c1c(O)nsc1Nc1ccc(Oc2ccc(Cl)cc2)cc1` [compound 183], with 1 to 100 nM. On to `COc1ccc(Nc2snc(O)c2C(=N)NCc2ccc(C(F)(F)F)nc2)c(OC)n1` [compound 184], for which the IC50 is > 500 nM. As to `CC(=O)Oc1nsc(Nc2ccc(Oc3ccccc3)cc2)c1C(=N)NC(C)C` [compound 185], the IC50 was in the range of 100 to 500 nM. Consider `N=C(NCC(O)CO)c1c(O)nsc1Nc1ccc(C2CCCCC2)cc1` (centres unmarked) [compound 186], for which the IC50 is > 500 nM. Turning to `CCCCCCCCCCOCC(O)CNC(=N)c1c(O)nsc1Nc1ccc(Oc2ccccc2)cc1` (centres unmarked) [compound 187], the concentration for half-maximal inhibition (IC50) is > 500 nM. Then `CC(C)(CO)NC(=N)c1c(O)nsc1Nc1ccc(Oc2ccccc2)cc1` [compound 188], with 100 to 500 nM.
